From patent publication US8377884B2, “Variants of C-type natriuretic peptides” (Biomarin Pharmaceutical Inc., priority 2007, dated 2013)
Like-named read-outs stand apart in the source and are kept apart here. Bridge positions count the residues as written; N and C are the ends. Peptide text beside a SMILES is read from it.

How the values were obtained:
Recombinant human NEP = Recombinant human NEP (Homo sapiens, UniProt P08473); assay: In vitro neutral endopeptidase (NEP) cleavage assay
Procedure, shortened: (§1)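 Recombinant human NEP (1 ug/mL final) incubated with 100 uM CNP variant in 0.1 M Tris, pH 7, at 37° C for various times, then quenched with EDTA (10 mM final) and heat. Samples reduced and analysed by HPLC and mass spectrometry. Half-life derived from loss of intact variant over time.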

[1] = molecular target: neutral endopeptidase (NEP) (Homo sapiens, UniProt P08473); assay: as above; settings: human, pH 7
Procedure, shortened: as §1

NPR-B = molecular target: T1, NPR-B (Mus musculus, UniProt Q6VVW5); assay: Stimulation of cGMP production in NIH3T3 cells; type: cell-based, Murine; settings: for cGMP response relative to 1 uM CNP22 (%) at 0.01 µM: read-out: cGMP Response rel. to 1 uM CNP22, 10 nM; for cGMP response relative to 1 uM CNP22 (%) at 1 µM: read-out: cGMP Response rel. to 1 uM CNP22, 1 uM
T1 construct: Murine NIH3T3 cells express endogenously the CNP signaling receptor, NPR-B; endogenous in cells; host or cells: NIH3T3 (murine fibroblasts)
T1 sequence (Q6VVW5 17-1047): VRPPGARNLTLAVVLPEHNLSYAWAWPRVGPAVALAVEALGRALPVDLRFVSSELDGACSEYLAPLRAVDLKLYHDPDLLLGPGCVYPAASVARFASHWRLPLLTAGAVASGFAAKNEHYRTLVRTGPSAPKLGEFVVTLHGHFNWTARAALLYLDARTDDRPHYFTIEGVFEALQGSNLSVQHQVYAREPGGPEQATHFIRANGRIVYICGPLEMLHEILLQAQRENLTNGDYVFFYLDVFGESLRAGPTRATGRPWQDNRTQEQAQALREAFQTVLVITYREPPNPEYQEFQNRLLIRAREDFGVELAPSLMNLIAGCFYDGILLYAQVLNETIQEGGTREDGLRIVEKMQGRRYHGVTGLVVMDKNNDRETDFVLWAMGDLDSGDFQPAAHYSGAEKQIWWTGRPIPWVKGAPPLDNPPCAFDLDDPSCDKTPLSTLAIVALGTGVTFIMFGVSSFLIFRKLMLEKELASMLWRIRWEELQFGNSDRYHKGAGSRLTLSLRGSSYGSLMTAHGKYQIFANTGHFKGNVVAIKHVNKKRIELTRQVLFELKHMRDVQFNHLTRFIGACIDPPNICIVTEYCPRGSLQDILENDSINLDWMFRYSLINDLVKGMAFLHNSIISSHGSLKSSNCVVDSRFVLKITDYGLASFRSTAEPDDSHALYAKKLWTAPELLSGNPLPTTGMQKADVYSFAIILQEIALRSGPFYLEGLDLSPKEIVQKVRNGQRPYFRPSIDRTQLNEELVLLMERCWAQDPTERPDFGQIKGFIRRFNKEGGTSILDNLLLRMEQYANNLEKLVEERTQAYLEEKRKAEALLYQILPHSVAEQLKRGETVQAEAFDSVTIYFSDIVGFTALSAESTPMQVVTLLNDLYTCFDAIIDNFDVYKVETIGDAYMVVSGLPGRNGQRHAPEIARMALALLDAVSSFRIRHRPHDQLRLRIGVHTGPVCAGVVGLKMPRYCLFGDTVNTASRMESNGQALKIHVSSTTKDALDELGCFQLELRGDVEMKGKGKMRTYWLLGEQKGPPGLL

[2] = in vitro NEP cleavage assay, assay period 160 minutes
[3] = NIH3T3 cells, 10 nM natriuretic peptide, normalized to cell number and cGMP production with 1 uM wtCNP22
[4] = NIH3T3 cells, 1 uM natriuretic peptide, normalized to cell number and cGMP production with 1 uM wtCNP22

Chain of Recombinant human NEP (P08473 whole entry): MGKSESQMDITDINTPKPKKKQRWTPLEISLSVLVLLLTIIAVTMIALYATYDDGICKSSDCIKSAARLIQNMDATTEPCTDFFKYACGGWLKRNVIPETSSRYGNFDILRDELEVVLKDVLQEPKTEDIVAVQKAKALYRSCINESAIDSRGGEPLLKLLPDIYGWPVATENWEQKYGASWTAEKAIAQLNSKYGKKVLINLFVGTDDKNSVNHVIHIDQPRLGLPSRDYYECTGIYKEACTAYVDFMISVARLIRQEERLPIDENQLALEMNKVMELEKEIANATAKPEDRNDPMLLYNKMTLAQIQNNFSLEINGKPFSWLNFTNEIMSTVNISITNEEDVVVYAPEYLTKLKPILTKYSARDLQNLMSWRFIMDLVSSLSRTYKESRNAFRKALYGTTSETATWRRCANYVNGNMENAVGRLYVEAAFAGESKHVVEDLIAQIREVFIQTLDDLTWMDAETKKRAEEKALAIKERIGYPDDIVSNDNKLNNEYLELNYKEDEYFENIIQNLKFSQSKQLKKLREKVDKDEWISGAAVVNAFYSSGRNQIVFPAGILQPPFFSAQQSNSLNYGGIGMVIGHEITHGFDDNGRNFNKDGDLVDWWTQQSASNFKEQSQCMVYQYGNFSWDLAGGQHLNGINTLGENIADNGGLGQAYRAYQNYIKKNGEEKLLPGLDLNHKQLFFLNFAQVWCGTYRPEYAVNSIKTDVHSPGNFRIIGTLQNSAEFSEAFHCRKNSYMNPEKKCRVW
Chain of neutral endopeptidase (NEP) (P08473 whole entry): as above

resistance to NEP cleavage/degradation (in words) (Recombinant human NEP)	Structure (SMILES)	half-life in comparison to wtCNP22 (Recombinant human NEP; NEP at 1 ug/ml)	resistance to cleavage at the Cys6-Phe7 bond relative to wtCNP22 (Recombinant human NEP; data not shown)	resistance to cleavage of the Gly8-Leu9 bond (Recombinant human NEP; in the presence of 1 ug/mL NEP, data not shown)	half-life at 100 uM [1] [h]	cGMP response relative to 1 uM CNP22 (%) at 0.01 µM (NPR-B; NIH3T3, […]) [%]	cGMP response relative to 1 uM CNP22 (%) at 1 µM (NPR-B; NIH3T3, […]) [%]	resistance to NEP cleavage/degradation (in words) (Recombinant human NEP; [2])	cGMP response relative to 1 uM CNP22 (%) at 0.01 µM (NPR-B; [3]) [%]	cGMP response relative to 1 uM CNP22 (%) at 1 µM (NPR-B; [4]) [%]
	CC[C@H](C)[C@@H]1NC(=O)[C@H](CCCNC(=N)N)NC(=O)[C@H](CC(=O)O)NC(=O)[C@H](CC(C)C)NC(=O)[C@H](CCCCN)NC(=O)[C@H](CC(C)C)NC(=O)CNC(=O)[C@H](Cc2cccc(Cl)c2)NC(=O)[C@@H](NC(=O)CNC(=O)[C@H](CCCCN)NC(=O)[C@H](CO)NC(=O)[C@H](CC(C)C)NC(=O)CN)CSSC[C@@H](C(=O)O)NC(=O)CNC(=O)[C@H](CC(C)C)NC(=O)CNC(=O)[C@H](CO)NC(=O)[C@H](CCSC)NC(=O)[C@H](CO)NC(=O)CNC1=O [G]	about 1.5 times	resistance or improved resistance	exhibited resistance	2.25	17	93			
	CC[C@@H](C)[C@H]1NC(=O)[C@@H](CCCNC(=N)N)NC(=O)[C@@H](CC(=O)O)NC(=O)[C@@H](CC(C)C)NC(=O)[C@@H](CCCCN)NC(=O)[C@@H](CC(C)C)NC(=O)CNC(=O)[C@@H](Cc2ccccc2)NC(=O)[C@H](NC(=O)CNC(=O)[C@@H](CCCCN)NC(=O)[C@@H](CO)NC(=O)[C@@H](CC(C)C)NC(=O)CN)CSSC[C@H](C(=O)O)NC(=O)CNC(=O)[C@@H](CC(C)C)NC(=O)CNC(=O)[C@@H](CO)NC(=O)[C@@H](CCSC)NC(=O)[C@@H](CO)NC(=O)CNC1=O [N]				> 2.67	2	1	greatest resistance to NEP cleavage		
	CC[C@H](C)[C@@H]1NC(=O)[C@H](CCCNC(=N)N)NC(=O)[C@H](CC(=O)O)NC(=O)[C@H](CC(C)C)NC(=O)[C@H](CCCCN)NC(=O)[C@H](CC(C)C)NC(=O)CNC(=O)[C@H](Cc2ccccc2)NC(=O)[C@@H](NC(=O)CNC(=O)[C@H](CCCCN)NC(=O)[C@H](CO)NC(=O)[C@H](CC(C)C)NC(=O)CNC(=O)CCOCCOCCOCCOCCOCCOCCOCCOCCOCCOCCOCCOCCOCCOCCOCCOCCOCCOCCOCCOCCOCCOCCOCCOC)CSSC[C@@H](C(=O)O)NC(=O)CNC(=O)[C@H](CC(C)C)NC(=O)CNC(=O)[C@H](CO)NC(=O)[C@H](CCSC)NC(=O)[C@H](CO)NC(=O)CNC1=O [PEO24-CNP22]				> 2.67			resistant to NEP degradation over the assay period of 160 minutes	8 ± 5	46 ± 10
most resistant to NEP degradation	CC[C@H](C)[C@@H]1NC(=O)[C@H](CCCNC(=N)N)NC(=O)[C@H](CC(=O)O)NC(=O)[C@H](CC(C)C)NC(=O)[C@H](CCCCN)NC(=O)[C@H](CC(C)C)NC(=O)CNC(=O)[C@H](Cc2ccccc2)NC(=O)[C@@H](NC(=O)CNC(=O)[C@H](CCCNC(=N)N)NC(=O)[C@H](CO)NC(=O)[C@H](CC(C)C)NC(=O)CNC(=O)[C@H](CCC(N)=O)NC(=O)[C@H](CCC(N)=O)NC(=O)[C@H](CC(N)=O)NC(=O)[C@H](C)NC(=O)CNC(=O)[C@@H](NC(=O)[C@H](Cc2ccc(O)cc2)NC(=O)[C@@H](NC(=O)[C@H](CCC(N)=O)NC(=O)[C@@H]2CCCN2C(=O)[C@H](CCC(=O)O)NC(=O)[C@H](CCCNC(=N)N)NC(=O)[C@@H]2CCCN2C(=O)[C@H](CCC(N)=O)NC(=O)CN)C(C)C)[C@@H](C)O)CSSC[C@@H](C(=O)O)NC(=O)CNC(=O)[C@H](CC(C)C)NC(=O)CNC(=O)[C@H](CO)NC(=O)[C@H](CCSC)NC(=O)[C@H](CO)NC(=O)CNC1=O [CK] (H-GQPREPQVYTGANQQGLSRGCFGLKLDRIGSMSGLGC-OH; disulfide 21-37 (inferred); N-terminus and C-terminus assumed)				≥ 2.67				2	32
	CC[C@H](C)[C@@H]1NC(=O)[C@H](CCCNC(=N)N)NC(=O)[C@H](CC(=O)O)NC(=O)[C@H](CC(C)C)NC(=O)[C@H](CCCCN)NC(=O)[C@H](CC(C)C)NC(=O)CNC(=O)[C@H](Cc2ccccc2)NC(=O)[C@@H](NC(=O)CNC(=O)[C@H](CCCNC(=N)N)NC(=O)[C@H](CO)NC(=O)[C@H](CC(C)C)NC(=O)CN)CSSC[C@@H](C(=O)O)NC(=O)CNC(=O)[C@H](CC(C)C)NC(=O)CNC(=O)[C@H](CO)NC(=O)[C@H](CCSC)NC(=O)[C@H](CO)NC(=O)[C@H](CC(N)=O)NC1=O [BJ] (H-GLSRGCFGLKLDRINSMSGLGC-OH; disulfide 6-22 (inferred); N-terminus and C-terminus assumed)				2.5	4	41	greatest resistance to NEP cleavage		
	CC[C@H](C)[C@@H]1NC(=O)[C@H](CCCNC(=N)N)NC(=O)[C@H](CC(=O)O)NC(=O)[C@H](CC(C)C)NC(=O)[C@H](CCCCN)NC(=O)[C@H](CC(C)C)NC(=O)CNC(=O)[C@H](Cc2ccccc2)NC(=O)[C@@H](NC(=O)CNC(=O)[C@H](CCCNC(=N)N)NC(=O)[C@H](CO)NC(=O)[C@H](CC(C)C)NC(=O)CN)CSSC[C@@H](C(=O)O)NC(=O)CNC(=O)[C@H](CC(C)C)NC(=O)CNC(=O)[C@H](CO)NC(=O)[C@H](CCSC)NC(=O)[C@H](CO)NC(=O)[C@H](CO)NC1=O [BK] (H-GLSRGCFGLKLDRISSMSGLGC-OH; disulfide 6-22 (inferred); N-terminus and C-terminus assumed)				≥ 2.67	13 ± 1	71 ± 11	greatest resistance to NEP cleavage		
